Where two headings read alike, the source gives them in different places.
Experiments:
[1] = tested on: sterol biosynthesis in Fu5AH rat hepatoma cell line; assay: Test B: In Vitro Cell Culture Cholesterol Biosynthesis Screen; format: cell-based; conditions: Fu5AH rat hepatoma cells, [14C]acetate, 3 hours, read-out: IC50 (50% inhibition of sterol biosynthesis)
Protocol: Test B. In Vitro Cell Culture Cholesterol Biosynthesis Screen:
The cell culture is prepared as follows: Stock monolayer cultures of the Fu5AH rat hepatoma cell line (originally obtained from G. Rothblat; see Rothblat, Lipids 9, 526-535 (1974) are routinely maintained in Eagle's Minimum Essential Medium (EMEM) supplemented with 10% fetal bovine serum (FBS) in 75 cm^2. tissue culture flasks. For these studies, when the cultures reach confluence, they are removed by mild enzymatic treatment with 0.25% trypsin in Hank's balanced salt solution (without calcium and magnesium). After centrifugation of the cell suspension and aspiration of the enzymatic solution, the cell pellet is resuspended in an appropriate volume of media for seeding into 60 mm. tissue culture dishes. The cultures are incubated at 37° C. in an atmosphere of high humidity and 5% carbon dioxide. When the cultures are confluent (approximately 5 days), they are ready for use. The culture media is aspirated from the dishes and replaced with 3 ml. of EMEM supplemented with 5 mg./ml. of delipidized serum protein (DLSP) prepared by the method of Rothblat et al., In Vitro 12, 554-447 (1976). […] Enhanced 3-hydroxy-3-methylglutaryl Coenzyme A reductase (HMG-CoA reductase) activity is measurable in the cells in response to the lack of exogenous sterol. Following approximately 24 hours incubation at 37° C. in the DLSP supplemented media, the assay is initiated by the addition of 3 μCi of [^14 C]acetate and the test substances solubilized in dimethylsulfoxide (DMSO) or distilled water. Solvent controls and compactin-treated controls are always prepared. Triplicate 60 mm. tissue culture dishes are run for each group. After 3 hours incubation at 37° C., the cultures are examined microscopically using an inverted phase contrast microscope. Notations are made of any morphological changes which may have occurred in the cultures. The media is aspirated and the cell layer is gently washed twice with 0.9% sodium chloride solution (saline). The cell layer is then harvested in 3 ml. of 0.9% saline by gentle scraping with a rubber policeman and transferred to a clean glass tube with Teflon lined cap. The dishes are rinsed with 3 ml. of 0.9% saline and rescraped, and the cells are combined with the first harvest. The tubes are centrifuged at 1500 r.p.m. for 10 minutes in an IEC PR-J centrifuge, and the supernatant is aspirated.
The cells are then extracted as follows: One ml. of 100% ethanol is added to the cell pellet followed by sonication for 10 seconds with a "LO" setting of 50 on a Bronwell Biosonik IV. One hundred μl. are taken for protein determination. One ml. of 15% potassium hydroxide (KOH) is added, and the samples are thoroughly vortexed. Saponification is accomplished by heating the ethanol-KOH treated samples at 60° C. for 60 minutes in a water bath. Following dilution of the samples with 2 ml. of distilled water, they are extracted three times with 7 ml. of petroleum ether. The petroleum ether extracts are then washed three times with 2 ml. of distilled water and finally taken to dryness under a stream of nitrogen.
The obtained samples are then analyzed by thin layer chromatography (TLC) as follows: Residues from the petroleum ether extraction are taken up in a small volume of hexane and spotted on silica gel 60 TLC plates (E. Merck). Development of the plates is carried out in a three phase solvent system consisting of 150 parts by volume hexane: 50 parts by volume diethyl ether: 5 parts by volume glacial acetic acid. Visualization is accomplished in an iodine vapor chamber. The plates are divided into five sections such that each section contains the molecules having the following approximate Rf value: section 1-0-0.4, section 12-0.4-0.55, section 3-0.55-0.7, section 4-0.7-0.9 and section 5-0.9-1.0. Section 2 contains the non-saponifiable sterols. The five sections of the TLC plates are scraped into scintillation vials. […]

[2] = tested on: 3β-hydroxysterol synthesis; assay: Test C: In Vivo Cholesterol Biosynthesis Inhibition Test; parameters: species or system rat (male Wistar Royal Hart); conditions: for ED50: Rattus norvegicus, read-out: ED50 (50% inhibition of 3β-hydroxysterol synthesis)
Protocol: Test C. In Vivo Cholesterol Biosynthesis Inhibition Test:
In vivo studies utilize male Wistar Royal Hart rats weighing 150±20 g. which have been kept for 7-10 days on an altered light cycle (6:30 A.M.-6.30 P.M. dark) housed two per cage and fed powdered Purina Rat Chow and water ad libitum. Three hours before the diurnal maximum of cholesterol synthesis at mid-dark, the rats are administered the test substances dissolved or as a suspension in 0.5% carboxymethylcellulose in a volume of 1 ml./100 g. body weight. Controls receive vehicle alone. One hour after receiving the test substance, the rats are injected intraperitoneally with about 25 μCi/100 g. body weight of sodium [1-^14 C]acetate 1-3 mCi/mmol. Two hours after mid-dark, blood samples are obtained under sodium hexobarbitol anesthesia, and the serum separated by centrifugation. (The dosage of the test substance is 0.01-200 mg./kg. body weight.)
The [^14 C]digitonides are then counted by liquid scintillation spectrometry. After correcting for efficiencies, the results are calculated in nCi (nanocuries) of sterol formed per 100 ml. of serum. Inhibition of sterol synthesis is calculated from the reduction in the nCi of sterols formed from test groups compared to controls.
The ED50 is the dose of the test substances observed or calculated to produce a 50% inhibition of 3β-hydroxysterol synthesis.

HMG-CoA reductase = target: T1, HMG-CoA reductase (Rattus norvegicus, UniProt P51639); assay: Test A: In Vitro Microsomal Assay of HMG-CoA Reductase Inhibition; format: biochemical; conditions: rat liver microsomes, read-out: IC50 (50% inhibition of HMG-CoA reductase activity)
T1 construct: rat liver microsomal suspensions, freshly prepared from male Sprague-Dawley rats; from tissue; host or cells: liver microsomes of male Sprague-Dawley rats
T1 sequence (P51639 1-887): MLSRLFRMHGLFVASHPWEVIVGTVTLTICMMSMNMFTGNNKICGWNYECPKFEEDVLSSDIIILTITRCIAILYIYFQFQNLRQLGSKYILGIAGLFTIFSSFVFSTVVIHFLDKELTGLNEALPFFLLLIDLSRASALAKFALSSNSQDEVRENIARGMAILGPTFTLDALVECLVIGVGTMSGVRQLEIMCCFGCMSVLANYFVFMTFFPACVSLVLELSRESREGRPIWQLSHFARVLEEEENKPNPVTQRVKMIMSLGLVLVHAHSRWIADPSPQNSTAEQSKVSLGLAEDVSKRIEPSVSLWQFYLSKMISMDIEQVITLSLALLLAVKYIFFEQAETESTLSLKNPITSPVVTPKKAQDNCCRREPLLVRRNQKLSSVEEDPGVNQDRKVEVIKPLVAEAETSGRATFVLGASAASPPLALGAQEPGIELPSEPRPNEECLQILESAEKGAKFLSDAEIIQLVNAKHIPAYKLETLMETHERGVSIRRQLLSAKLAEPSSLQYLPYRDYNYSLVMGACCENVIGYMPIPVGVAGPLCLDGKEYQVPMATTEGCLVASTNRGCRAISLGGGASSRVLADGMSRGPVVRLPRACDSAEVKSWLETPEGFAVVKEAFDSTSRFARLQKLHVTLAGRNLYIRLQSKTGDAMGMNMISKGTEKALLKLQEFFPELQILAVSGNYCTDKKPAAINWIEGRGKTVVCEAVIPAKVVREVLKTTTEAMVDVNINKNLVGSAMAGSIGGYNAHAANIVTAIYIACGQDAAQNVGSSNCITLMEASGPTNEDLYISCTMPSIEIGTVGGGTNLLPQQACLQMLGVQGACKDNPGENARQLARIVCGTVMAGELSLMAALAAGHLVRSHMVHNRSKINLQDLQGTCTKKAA
Protocol: Test A. In Vitro Microsomal Assay of HMG-CoA Reductase Inhibition:
200 μl. aliquots (1.08-1.50 mg./ml.) of rat liver microsomal suspensions, freshly prepared from male Sprague-Dawley rats (150-225 g. body weight), in Buffer A with 10 mmol. dithiothreitol are incubated with 10 μl. of a solution of the test substance dissolved in dimethylacetamide and assayed for HMG-CoA reductase activity as described by Ackerman et al., J. Lipid Res. 18, 408-413 (1977), the concentration of the test substance in the assay system being 0.01-2,000 μmolar. In the assay the microsomes are the source of the HMG-CoA reductase enzyme which catalyzes the reduction of HMG-CoA to mevalonate. The assay employs a chloroform extraction to separate the product, [^14 C]-mevalonolactone, formed by the HMG-CoA reductase reaction from the substrate, [^14 C]HMG-CoA. [^3 H]mevalonolactone is added as an internal reference. Inhibition of HMG-CoA reductase is calculated from the decrease in specific activity [^14 C/^3 H]mevalonate) of test groups compared to controls.
IC50 is the concentration of the test substance in the assay system observed or calculated to produce a 50% inhibition of HMG-CoA reductase activity (Test A) or sterol biosynthesis (Test B).

[3] = Test C, male Wistar Royal Hart rats

Row | IC50 [1] [µM] | IC50 (HMG-CoA reductase) [µM] | SMILES | ED50 [2, 3] [mg/kg] | change in 3β-hydroxysterol synthesis ([2]; Test C, male Wistar Royal Hart rats, at 5.9 mg./kg.) [%] | ED50 [2] [mg/kg]
1 | – | 450 | O=C1CC(O)CC(/C=C/[C@@H]2CC=CC[C@H]2c2ccc(Cl)cc2)O1 (stereo partly drawn) [Example 73] | – | – | –
2 | 5.8 | 116 | C[C@@H]1C=C[C@H](C)[C@@H](/C=C/C2CC(O)CC(=O)O2)[C@@H]1c1ccc(F)cc1 (stereo partly drawn) [Example 74] | 20 | – | –
3 | 4.8 | 29 | C[C@@H]1C=C[C@H](C)[C@H](c2ccccc2)[C@H]1/C=C/C1CC(O)CC(=O)O1 (stereo partly drawn) [Example 79] | – | -62 | –
4 | – | 7.2 | C[C@@H]1CC[C@H](C)[C@H](c2ccc(F)cc2)[C@H]1CCC(O)CC(O)CC(=O)O (stereo partly drawn) [Example 85] | – | – | –
5 | 5.4 | 141 | CCOC(=O)CC(O)CC(O)/C=C/[C@@H]1[C@@H](c2ccc(F)cc2)[C@H](C)CC[C@H]1C(C)C (stereo partly drawn) [Example 86] | – | – | –

The remaining lines, values behind:

Row | SMILES | IC50 [1] [µM] | IC50 (HMG-CoA reductase) [µM] | ED50 [2, 3] [mg/kg] | change in 3β-hydroxysterol synthesis ([2]; Test C, male Wistar Royal Hart rats, at 5.9 mg./kg.) [%] | ED50 [2] [mg/kg]
6 | CC[C@H](C)C(=O)O[C@H]1CCC=C2C=C[C@H](C)[C@H](CC[C@@H]3C[C@@H](O)CC(=O)O3)[C@H]21 [Compactin, reference compound] | 0.08 | 0.94 | 3.5 | – | –
7 | C[C@@H]1C=C[C@H](C)[C@H](c2ccc(F)cc2)[C@H]1/C=C/C1CC(O)CC(=O)O1 (stereo partly drawn) [Example 3, (E)-6-[2'-(2"α,5"α-Dimethyl-6"α-(4'"-fluorophenyl)cyclohex-3"-en-1"βS-yl)ethenyl]-4-hydroxy-3,4,5,6-tetrahydro-2H-pyran-2-one] | 1.2 | 8.13 | 2.4 | – | –
8 | C[C@@H]1C=C[C@H](C)[C@H](c2ccc(F)cc2)[C@H]1/C=C/[C@@H]1C[C@@H](O)CC(=O)O1 [Example 3A, (E)-Trans-6S-[2'-(2"α,5"α-Dimethyl-6"α-(4'"-fluorophenyl)cyclohex-3"-en-1"βS-yl)ethenyl]-4R-hydroxy-3,4,5,6-tetrahydro-2H-pyran-2-one] | – | 3.23 | – | – | –
9 | C[C@@H]1C=C[C@H](C)[C@H](c2ccc(F)cc2)[C@H]1/C=C/C(O)CC(O)CC(=O)O (stereo partly drawn) [Example 5, Sodium (E)-3,5-dihydroxy-7-[2'α,5'α-dimethyl-6'α-(4"-fluorophenyl)cyclohex-3'-en-1'βS-yl]hept-6-enoate] | 0.6 | 1.19 | 2.07 | – | –
10 | C[C@@H]1C=C[C@H](C)[C@H](c2ccc(F)cc2)[C@H]1/C=C/[C@@H](O)C[C@@H](O)CC(=O)O [Example 5A, Sodium (E)-3R,5S-dihydroxy-7-[2'α,5'α-dimethyl-6'α-(4"-fluorophenyl)cyclohex-3'-en-1'βS-yl]hept-6-enoate] | – | 0.54 | – | – | –
11 | CCOC(=O)CC(O)CC(O)/C=C/[C@@H]1[C@@H](c2cccc3ccccc23)[C@@H](C)C=C[C@H]1C (stereo partly drawn) [Example 6, Ethyl (E)-3,5-dihydroxy-7-(2'α,5'α-dimethyl-6'α-naphth-1"-ylcyclohex-3'-en-1'βS-yl)hept-6-enoate] | – | 5.57 | – | – | –
12 | O=C1CC(O)CC(/C=C/[C@H]2CC=CC[C@@H]2c2ccccc2)O1 (stereo partly drawn) [Example 67B] | – | 1370 | – | – | –
13 | CC[C@H](C)C(=O)O[C@H]1C[C@@H](C)C=C2C=C[C@H](C)[C@H](CC[C@@H]3C[C@@H](O)CC(=O)O3)[C@H]21 [Mevinolin, reference compound] | – | – | – | – | 0.41
